# Measurements reported in patent US9592226B2, “Solenopsin and derivatives, therapeutic compositions; and methods related thereto” (priority 2013, dated 2017).
# Legend:
# [1] = test system: A375 (human melanoma) cells; test: Proliferation study, A375 cells (Coulter Counter); type: cell-based; conditions: 10 μM, 24 h, cell count vs DMSO
# Experimental: 50,000 cells/well were plated and treated for 24 h with each compound. The first DMSO bar in each chart serves as control for (+)-solenopsin A, (−)-solenopsin A, and ceramide C2. The second DMSO bar is the control for S11-S15.
# (§1) Different analogs of solenopsin were synthesized (FIG. 1) in order to explore their structure-activity relationships. The aliphatic side chains of S14 and S13 are 4 and 8 carbons longer compared to solenopsin, respectively. S11 has an 8-carbon longer side chain, as well as an extra methyl group in the 4-position of the piperidine ring. S15 has an 11-carbon side chain similar to solenopsin, but the first carbon in the side chain is hydroxylated. Also, S15 lacks the methyl group in the 2-position of the piperidine ring. All the analogs together with (−)- and (+)-solenosin A, and the isomeric mixture of the two cis-isomers of solenopsin (S12) were tested, at 10 μM, on two different human melanoma cell lines (A375 and A2058) and one murine angiosarcoma cell line (SVR) (FIG. 2). The A375 and A2058 melanoma cell lines express mutant Braf and the SVR murine angiosarcoma cell line expresses mutant Hras. One important difference between the two human melanoma cell lines is the A2058 is PTEN null, whereas A375 is not.
# (§2) A375 (human melanoma), A2058 (human melanoma), or SVR (murine angiosarcoma) cells were plated at a concentration of 50,000 cells/well. The cells were treated with 10 μM of (−)-solenopsin A, (+)-solenopsin A, or analogs (S11-S15) for 24 hours, at which point cells were counted with a Coulter Counter.
# [2] = test system: A2058 (human melanoma) cells; test: Proliferation study, A2058 cells (Coulter Counter); type: cell-based; conditions: 10 μM, 24 h, cell count vs DMSO
# Excerpt: as §1, §2
# [3] = test system: SVR (murine angiosarcoma) cells; test: Proliferation study, SVR cells (Coulter Counter); type: cell-based; conditions: 10 μM, 24 h, cell count vs DMSO
# Excerpt: as §1, §2
# Akt = test: FRET biosensor AktAR, Akt activity in NIH3T3 cells; type: cell-based, murine; conditions: 10 μM, 1 h
# Experimental: (§3) In order to determine whether solenopsin A and analogs have similar modes of action to ceramide, a series of fluorescent biosensors were employed for the PI3K/Akt pathway. […] No significant inhibition could be seen for any of the other solenopsin analogs (FIG. 4).
# (§4) PARE was generated by sandwiching full-length PDK1 between a fluorescent protein pair (FRET pair), ECFP and citrine, and a motif generated from the Lyn-kinase gene was added to the 5′-end to target the construct to raft microdomains. AktAR was generated by a fluorescent protein pair, cerulean and cpVE172, sandwiching a forkhead-associated binding domain (FHA1) and an Akt substrate domain (FOXO). PH(Akt)-citrine was constructed by attaching the yellow fluorescent protein (citrine) to the C-terminus of PH domain of Akt1, therefore the translocation of Akt PH domain can be detected by increase of yellow fluorescence at plasma membrane.
# (§5) NIH3T3 cells were plated and grown to 40% confluency. […] The data was analyzed with Metafluor 6.2 software (Universal Imaging, Downingtown, Pa.). Cell regions were selected and fluorescence images were background-corrected by deducting the background (regions with no cells) from the emission intensities of CFP or YFP. […] For analysis of PH (Akt) domain translocation (PH(Akt)-citrine), the ratio of intensities of citrine at cell membrane and cytosol were calculated after background correction. […]
# PDK1 = molecular target: T1, PDK1 (Homo sapiens, UniProt O15530); test: FRET biosensor Lyn-PARE, PDK1 activation in membrane rafts of NIH3T3 cells; type: cell-based, murine; conditions: 10 μM, 1 h
# T1 construct: PARE was generated by sandwiching full-length PDK1 between a fluorescent protein pair (FRET pair), ECFP and citrine; expressed in transfected cells; host or cells: NIH3T3
# T1 sequence (O15530 1-556): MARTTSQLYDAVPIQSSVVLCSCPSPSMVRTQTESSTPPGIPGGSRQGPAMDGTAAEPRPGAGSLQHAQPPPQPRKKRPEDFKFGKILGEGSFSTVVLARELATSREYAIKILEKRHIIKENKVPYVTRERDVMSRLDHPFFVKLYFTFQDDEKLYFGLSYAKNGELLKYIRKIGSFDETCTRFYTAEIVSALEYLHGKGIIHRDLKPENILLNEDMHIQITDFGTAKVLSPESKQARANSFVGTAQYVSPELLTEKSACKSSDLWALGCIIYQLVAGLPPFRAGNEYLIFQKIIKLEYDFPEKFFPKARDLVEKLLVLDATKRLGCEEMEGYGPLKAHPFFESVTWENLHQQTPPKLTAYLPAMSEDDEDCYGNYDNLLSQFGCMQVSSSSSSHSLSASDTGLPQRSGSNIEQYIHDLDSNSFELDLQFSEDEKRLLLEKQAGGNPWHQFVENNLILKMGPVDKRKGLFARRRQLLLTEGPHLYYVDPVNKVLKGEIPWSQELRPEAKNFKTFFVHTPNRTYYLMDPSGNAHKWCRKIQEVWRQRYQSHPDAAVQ
# Experimental: as §3, §4, §5
# PH domain of Akt1 = molecular target: T2, PH domain of Akt1 (Homo sapiens, UniProt P31749); test: PH(Akt)-citrine, Akt translocation in NIH3T3 cells; type: cell-based, murine; conditions: 10 μM, 1 h
# T2 construct: attaching the yellow fluorescent protein (citrine) to the C-terminus of PH domain of Akt1; expressed in transfected cells; host or cells: NIH3T3
# T2 sequence (P31749 5-108 limits assumed): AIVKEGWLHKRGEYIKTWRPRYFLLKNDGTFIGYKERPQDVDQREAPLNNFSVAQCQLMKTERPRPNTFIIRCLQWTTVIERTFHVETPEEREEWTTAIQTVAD
# Experimental: as §3, §4, §5
# UM-SCC1A cells = test: Oxygen consumption rate (Seahorse) in UM-SCC1A cells; type: cell-based, human; conditions: 10 μM, 24 h
# Experimental: UM-SCC1A cells were plated 15,000/well and treated for 24 h with 10 μM of (+)-solenopsin A ((+) Sol. A), (−)-solenopsin A ((−) Sol. A), and solenopsin analogs S11-S15. Oxygen consumption rate (OCR) was measured as pmoles O2/minute using a Seahorse Biosciences instrument. Data shown are an average of three experiments±s.d.
# At least not in Braf mutated cell lines, such as A375 and A2058. One possibility is that solenopsin, like ceramide, may also localize to mitochondria, and cause mitochondrial induced cell death. Cellular oxygen consumption rate can be indicative of mitochondrial function. Therefore, to investigate if solenopsin A and analogs do alter mitochondrial function, UM-SCC1A (human head and neck SCC) cells were then treated with 10 μM compound or the equivalent amount of DMSO and incubated for 24 hours. A SeaHorse Bioscience instrument was used to measure the oxygen consumption rate (OCR). […] Mitophagy can be one reason for decreased OCR, but further assays are needed to confirm the cause for the observed differences.
# UM-SCC1A cells were plated 15,000 per well in 200 μl DMEM supplemented with 10% FBS and 1% penicillin-streptomycin in each well of a 96-well Seahorse plate and incubated overnight at 37° C. with 5% CO2. Cells were then treated with 10 μM compound or the equivalent amount of DMSO and incubated for 24 hours. OCR was measured as pmoles O2/minute using the Seahorse Biociences instrument per manufacturer's instructions. Protein amounts in each well were then quantified using the Thermo Scientific Pierce Protein Assay, per manufacturer's instructions.
# A375 cells = test: Superoxide (ROS) by DHE fluorescence, A375 cells; type: cell-based, human; conditions: 10 μM, 24 h
# Experimental: Cells were treated for 24 h with 10 μM of (+)-solenopsin A ((+) Sol. A), (−)-solenopsin A ((−) Sol. A), and solenopsin analogs S11-S15. Cells were trypsined and incubated for 10 min in 10 μM dihydroethedium (DHE), followed by analysis with a FACScan flow cytometer. Data shown are an average of three experiments±s.d.
# A375 or SVR cells were plated in 6 cm dishes. After cells had adhered to the plates, they were treated for 24 h with 10 μM DMSO solutions of (+)-solenopsin A, (−)-solenopsin A, or analogs (S11-S15) at which time the media was aspirated. Cells were washed with 2 mL PBS then treated with 0.05% trypsin/0.53 mM EDTA (Fisher) for 3 min at RT. Cells were collected and then pelleted at 600 g for 2 min. The supernatant was aspirated and the cells were suspended in 10 uM dihydroethidium (DHE) (Life Technologies) and incubated for 10 min in the dark at RT while shaking Following this incubation, cells were kept until counting on a Becton Dickinson FACScan flow cytometer. 10,000 cells were counted and analyzed by FlowJo 7.6.4. Mean values of DHE fluorescence intensity were compared.
smiles,measurement,setting,value
"CCCCCCCCCCCCCCCCCCCC1CCCC(C)N1 (centres unmarked) [Compound S13, 2-Methyl-6-nonadecylpiperidine]",antiproliferative effect,[1],lower antiproliferative effect than S12
same,antiproliferative effect,[2],lower antiproliferative effect than S12
same,antiproliferative effect,[3],lower antiproliferative effect than S12
same,inhibition of Akt activity (AktAR),Akt,some inhibition
same,inhibition of PDK1 activation (Lyn-PARE),PDK1,some inhibition
same,inhibition of Akt translocation (PH(Akt)-citrine),PH domain of Akt1,some inhibition
same,oxygen consumption rate (OCR) compared to DMSO control,UM-SCC1A cells,slightly reduced OCR
same,effect on superoxide levels (DHE fluorescence),A375 cells,no effect on superoxide levels
